From the NIST ThermoML archive (doi:10.1021/je0342421)

Settings: Liquid

CCOC(C)(C)C [2-ethoxy-2-methylpropane]
Settings	vapor or sublimation pressure [kPa]
312.49 K	31.7
318.55 K	40.2
323.25 K	47.2
325.18 K	51.4
326.6 K	54.1
329.02 K	59
331.96 K	65.3
333.28 K	67.4
335.92 K	74.8
338.08 K	80.5
340.01 K	85.8
341.49 K	90.1
342.88 K	94.3
343.86 K	97
345.77 K	102.8
